Results published in patent publication US6355799B1, “Substituted benzene compounds, process for their preparation, and herbicidal and defoliant compositions containing them” (ISK Americas Incorporated, priority 1997, dated 2002).
Read-outs that look alike come from different tables or passages of the source.

Tests used:
Assay type in all cases: in vivo
[1] = test system: velvetleaf (Abutilon theophrasti, ABUTH); experiment: Post-emerge test, greenhouse herbicide activity screening; conditions: for phytotoxicity rating ABUTH: rating scale 0-100; for pest or weed control at 63 g/ha / pest or weed control at 250 g/ha: Abutilon theophrasti, post-emergence, 336 h, read-out: Post-emerge Herbicidal Activity ABUTH
How it was run: (§1)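 Compounds in acetone were track-sprayed at 15–1000 g ai/ha: pre-emergence onto soil sown the previous day, then top-watered to incorporate and later bottom-watered; post-emergence onto 2–3 leaf plants with 0.25% v/v surfactant, bottom-watered only. Ratings on a 0–100 phytotoxicity scale were taken at day 14.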

[2] = test system: ivyleaf morningglory (Ipomoea hederacea, IPOHE); experiment: as above; conditions: for phytotoxicity rating IPOHE: rating scale 0-100; for pest or weed control at 63 g/ha / pest or weed control at 250 g/ha: Ipomoea, post-emergence, 336 h, read-out: Post-emerge Herbicidal Activity IPOHE
How it was run: as §1

[3] = test system: large crabgrass (Digitaria sanguinalis, DIGSA); experiment: as above; conditions: for phytotoxicity rating DIGSA: rating scale 0-100; for pest or weed control at 63 g/ha / pest or weed control at 250 g/ha: Digitaria sanguinalis, post-emergence, 336 h, read-out: Post-emerge Herbicidal Activity DIGSA
How it was run: as §1

[4] = test system: lambsquarters (Chenopodium album, CHEAL); experiment: as above; conditions: for phytotoxicity rating CHEAL: rating scale 0-100; for pest or weed control at 63 g/ha / pest or weed control at 250 g/ha: Chenopodium album, post-emergence, 336 h, read-out: Post-emerge Herbicidal Activity CHEAL
How it was run: as §1

[5] = test system: sicklepod (Cassia obtusifolia, CASOB); experiment: as above; conditions: for phytotoxicity rating CASOB: rating scale 0-100; for pest or weed control at 63 g/ha / pest or weed control at 250 g/ha: Senna obtusifolia, post-emergence, 336 h, read-out: Post-emerge Herbicidal Activity CASOB
How it was run: as §1

[6] = test system: barnyardgrass (Echinochloa crus-galli, ECHCG); experiment: as above; conditions: for phytotoxicity rating ECHCG: rating scale 0-100; for pest or weed control at 63 g/ha / pest or weed control at 250 g/ha: Echinochloa crus-galli, post-emergence, 336 h, read-out: Post-emerge Herbicidal Activity ECHCG
How it was run: as §1

[7] = test system: green foxtail (Setaria viridis, SETVI); experiment: as above; conditions: for phytotoxicity rating SETVI: rating scale 0-100; for pest or weed control at 63 g/ha / pest or weed control at 250 g/ha: Setaria viridis, post-emergence, 336 h, read-out: Post-emerge Herbicidal Activity SETVI
How it was run: as §1

[8] = test system: johnsongrass (Sorghum halepense, SORHA); experiment: as above; conditions: for phytotoxicity rating SORHA: rating scale 0-100; for pest or weed control at 63 g/ha / pest or weed control at 250 g/ha: Sorghum halepense, post-emergence, 336 h, read-out: Post-emerge Herbicidal Activity SORHA
How it was run: as §1

[9] = test system: redroot pigweed (Amaranthus retroflexus, AMARE); experiment: as above; conditions: for pest or weed control at 63 g/ha / pest or weed control at 250 g/ha: Amaranthus retroflexus, post-emergence, 336 h, read-out: Post-emerge Herbicidal Activity AMARE
How it was run: as §1

[10] = test system: sicklepod (Cassia obtusifolia, CASOB); experiment: Pre-emerge test, greenhouse herbicide activity screening; conditions: for pest or weed control at 63 g/ha / pest or weed control at 250 g/ha: Senna obtusifolia, pre-emergence, 336 h, read-out: Pre-emerge Herbicidal Activity CASOB; for Pre-emerge Herbicidal Activity CASOB (phytotoxicity rating, scale 0-100): rated 14 days after application, 0 = no damage, 100 = complete death
How it was run: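 Rating: 0–100 visual injury, 14 DAA. Application: acetone, 187 l/ha, 15–1000 g ai/ha, flat-fan track sprayer with nozzle 40–45 cm above soil or canopy. Post-emerge runs used 0.25% v/v surfactant on 2–3 leaf plants.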

[11] = test system: redroot pigweed (Amaranthus retroflexus, AMARE); experiment: as above; conditions: for pest or weed control at 63 g/ha / pest or weed control at 250 g/ha: Amaranthus retroflexus, pre-emergence, 336 h, read-out: Pre-emerge Herbicidal Activity AMARE; for Pre-emerge Herbicidal Activity AMARE (phytotoxicity rating, scale 0-100): rated 14 days after application, 0 = no damage, 100 = complete death
How it was run: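 Sandy loam pots; pre-emerge: sown 1 d pre-spray, surface-watered after, then bottom-watered. Post-emerge: sown 8–21 d before, 2–3 leaf stage, + 0.25% v/v NIS, bottom-watered. Acetone, 187 l/ha track spray, 15–1000 g ai/ha. 0–100 injury score, day 14.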

[12] = post-emerge, 63 g ai/ha, 14 days after application
[13] = post-emerge, 250 g ai/ha, 14 days after application
[14] = 63 g ai/ha, phytotoxicity rating 0-100, 14 days after application
[15] = 250 g ai/ha, phytotoxicity rating 0-100, 14 days after application
[16] = post-emerge, 63 g ai/ha, phytotoxicity rating 0-100 at 14 days after application
[17] = post-emerge, 250 g ai/ha, phytotoxicity rating 0-100 at 14 days after application
[18] = pre-emerge, rate 63 g ai/ha, phytotoxicity rating 0-100 at 14 days after application
[19] = pre-emerge, rate 250 g ai/ha, phytotoxicity rating 0-100 at 14 days after application
[20] = 63 g ai/ha, phytotoxicity rating 0-100 (0 no damage, 100 complete death), 14 days after application
[21] = 250 g ai/ha, phytotoxicity rating 0-100 (0 no damage, 100 complete death), 14 days after application

COc1c(Cl)cc(F)c(-n2c(=O)cc(C(F)(F)F)n(C)c2=O)c1NC(N)=O [Compound 3-26, 3-(2-aminocarbonylamino-4-chloro-6-fluoro-3-methoxyphenyl)-1-methyl-6-trifluoromethyl-2,4(1H, 3H)-pyrimidinedione]
phytotoxicity rating ABUTH [1, 12]: 60 | phytotoxicity rating ABUTH [1, 13]: 60 | phytotoxicity rating IPOHE [2, 12]: 60 | phytotoxicity rating IPOHE [2, 13]: 90 | phytotoxicity rating DIGSA [3, 12]: 0 | phytotoxicity rating DIGSA [3, 13]: 0 | phytotoxicity rating CHEAL [4, 12]: 50 | phytotoxicity rating CHEAL [4, 13]: 60 | phytotoxicity rating CASOB [5, 12]: 20 | phytotoxicity rating CASOB [5, 13]: 60 | phytotoxicity rating ECHCG [6, 12]: 0 | phytotoxicity rating ECHCG [6, 13]: 0 | phytotoxicity rating SETVI [7, 12]: 0 | phytotoxicity rating SETVI [7, 13]: 0 | phytotoxicity rating SORHA [8, 12]: 0 | phytotoxicity rating SORHA [8, 13]: 0 | phytotoxicity rating AMARE ([9]; post-emerge, 63 g ai/ha, 14 days after application, rating scale 0-100 (0 no damage, 100 complete death)): 50 | phytotoxicity rating AMARE ([9]; post-emerge, 250 g ai/ha, 14 days after application, rating scale 0-100): 65 | pest or weed control at 63 g/ha [10, 14]: 40% | pest or weed control at 250 g/ha [10, 15]: 90% | pest or weed control at 63 g/ha [11, 14]: 80% | pest or weed control at 250 g/ha [11, 15]: 100%

COc1c(Cl)cc(F)c(-c2nn(C)c(C(F)(F)F)c2Cl)c1NC(=O)C=Cc1ccccc1 [Compound 7-15]
pest or weed control at 63 g/ha [1, 16]: 100% | pest or weed control at 250 g/ha [1, 17]: 99% | pest or weed control at 63 g/ha [2, 16]: 70% | pest or weed control at 250 g/ha [2, 17]: 70% | pest or weed control at 63 g/ha [3, 16]: 0% | pest or weed control at 250 g/ha [3, 17]: 0% | pest or weed control at 63 g/ha [4, 16]: 100% | pest or weed control at 250 g/ha [4, 17]: 100% | pest or weed control at 63 g/ha [5, 16]: 40% | pest or weed control at 250 g/ha [5, 17]: 80% | pest or weed control at 63 g/ha [6, 16]: 0% | pest or weed control at 250 g/ha [6, 17]: 10% | pest or weed control at 63 g/ha [7, 16]: 10% | pest or weed control at 250 g/ha [7, 17]: 10% | pest or weed control at 63 g/ha [8, 16]: 0% | pest or weed control at 250 g/ha [8, 17]: 0% | pest or weed control at 63 g/ha [9, 16]: 100% | pest or weed control at 250 g/ha [9, 17]: 100% | pest or weed control at 63 g/ha [10, 18]: 0% | pest or weed control at 250 g/ha [10, 19]: 10% | pest or weed control at 63 g/ha [11, 18]: 80% | pest or weed control at 250 g/ha [11, 19]: 100%

COc1c(Cl)cc(F)c(-n2c(=O)cc(C(F)(F)F)n(C)c2=O)c1[N+](=O)[O-] [Compound 1-5, 3-(4-chloro-6-fluoro-3-methoxy-2-nitrophenyl)-1-methyl-6-trifluoromethyl-2,4(1H, 3H)-pyrimidinedione]
pest or weed control at 63 g/ha [1, 20]: 10% | pest or weed control at 250 g/ha [1, 21]: 60% | pest or weed control at 63 g/ha [2, 20]: 0% | pest or weed control at 250 g/ha [2, 21]: 70% | pest or weed control at 63 g/ha [3, 20]: 0% | pest or weed control at 250 g/ha [3, 21]: 0% | pest or weed control at 63 g/ha [4, 20]: 0% | pest or weed control at 250 g/ha [4, 21]: 50% | pest or weed control at 63 g/ha [5, 20]: 0% | pest or weed control at 250 g/ha [5, 21]: 30% | pest or weed control at 63 g/ha [6, 20]: 0% | pest or weed control at 250 g/ha [6, 21]: 0% | pest or weed control at 63 g/ha [7, 20]: 0% | pest or weed control at 250 g/ha [7, 21]: 0% | pest or weed control at 63 g/ha [8, 20]: 0% | pest or weed control at 250 g/ha [8, 21]: 0% | pest or weed control at 63 g/ha [9, 20]: 0% | pest or weed control at 250 g/ha [9, 21]: 40% | Pre-emerge Herbicidal Activity CASOB (phytotoxicity rating, scale 0-100) ([10]; 63 g ai/ha, pre-emerge): 0 | Pre-emerge Herbicidal Activity CASOB (phytotoxicity rating, scale 0-100) ([10]; 250 g ai/ha, pre-emerge): 0 | Pre-emerge Herbicidal Activity AMARE (phytotoxicity rating, scale 0-100) ([11]; 63 g ai/ha, pre-emerge): 20 | Pre-emerge Herbicidal Activity AMARE (phytotoxicity rating, scale 0-100) ([11]; 250 g ai/ha, pre-emerge): 95
